Reference: publication PMC4858680, “A platinum-based hybrid drug design approach to circumvent acquired resistance to molecular targeted tyrosine kinase inhibitors” (Scientific Reports, 2016)
Where two headings read alike, the source gives them in different places.

Key:
Assay type in all cases: binding
[1] = biological target: T1, JAK2(JH1domain-catalytic) (Homo sapiens, UniProt O60674); conditions: for Percent control: 10 μM; for remaining binding at 10 µM: read-out: Percent control
T1 construct: JAK2(JH1domain-catalytic); purchased DiscoveRx KINOMEscan

TXK = biological target: T2, TXK (Homo sapiens, UniProt P42681); conditions: for Percent control: 10 μM; for remaining binding at 10 µM: read-out: Percent control
T2 construct: purchased DiscoveRx (KINOMEscan service)
T2 sequence (P42681 1-527): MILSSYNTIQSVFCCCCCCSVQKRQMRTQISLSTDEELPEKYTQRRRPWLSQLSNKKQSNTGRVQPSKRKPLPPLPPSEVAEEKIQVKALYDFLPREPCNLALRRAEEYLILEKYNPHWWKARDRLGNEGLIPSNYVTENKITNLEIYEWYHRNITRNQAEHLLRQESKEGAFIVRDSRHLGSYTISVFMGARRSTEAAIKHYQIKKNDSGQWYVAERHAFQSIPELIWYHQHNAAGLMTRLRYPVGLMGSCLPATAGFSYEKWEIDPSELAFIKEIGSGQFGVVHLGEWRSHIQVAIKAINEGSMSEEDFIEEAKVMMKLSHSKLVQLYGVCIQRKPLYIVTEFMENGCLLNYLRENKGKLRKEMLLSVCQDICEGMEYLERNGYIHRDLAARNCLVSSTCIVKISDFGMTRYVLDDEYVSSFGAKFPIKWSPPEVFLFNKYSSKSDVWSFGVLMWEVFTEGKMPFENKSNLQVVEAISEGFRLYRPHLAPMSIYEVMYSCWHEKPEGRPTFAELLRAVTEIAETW

BTK = biological target: T3, BTK (Homo sapiens, UniProt Q06187); conditions: for remaining binding at 10 µM: read-out: Percent control
T3 construct: purchased DiscoveRx KINOMEscan

TRKA = biological target: T4, TRKA (Homo sapiens, UniProt P04629); conditions: for remaining binding at 10 µM: read-out: Percent control
T4 construct: purchased DiscoveRx (KINOMEscan service)

EPHA8 = biological target: T5, EPHA8 (Homo sapiens, UniProt P29322); conditions: for remaining binding at 10 µM: read-out: Percent control
T5 construct: purchased DiscoveRx KINOMEscan
T5 sequence (P29322 28-1005): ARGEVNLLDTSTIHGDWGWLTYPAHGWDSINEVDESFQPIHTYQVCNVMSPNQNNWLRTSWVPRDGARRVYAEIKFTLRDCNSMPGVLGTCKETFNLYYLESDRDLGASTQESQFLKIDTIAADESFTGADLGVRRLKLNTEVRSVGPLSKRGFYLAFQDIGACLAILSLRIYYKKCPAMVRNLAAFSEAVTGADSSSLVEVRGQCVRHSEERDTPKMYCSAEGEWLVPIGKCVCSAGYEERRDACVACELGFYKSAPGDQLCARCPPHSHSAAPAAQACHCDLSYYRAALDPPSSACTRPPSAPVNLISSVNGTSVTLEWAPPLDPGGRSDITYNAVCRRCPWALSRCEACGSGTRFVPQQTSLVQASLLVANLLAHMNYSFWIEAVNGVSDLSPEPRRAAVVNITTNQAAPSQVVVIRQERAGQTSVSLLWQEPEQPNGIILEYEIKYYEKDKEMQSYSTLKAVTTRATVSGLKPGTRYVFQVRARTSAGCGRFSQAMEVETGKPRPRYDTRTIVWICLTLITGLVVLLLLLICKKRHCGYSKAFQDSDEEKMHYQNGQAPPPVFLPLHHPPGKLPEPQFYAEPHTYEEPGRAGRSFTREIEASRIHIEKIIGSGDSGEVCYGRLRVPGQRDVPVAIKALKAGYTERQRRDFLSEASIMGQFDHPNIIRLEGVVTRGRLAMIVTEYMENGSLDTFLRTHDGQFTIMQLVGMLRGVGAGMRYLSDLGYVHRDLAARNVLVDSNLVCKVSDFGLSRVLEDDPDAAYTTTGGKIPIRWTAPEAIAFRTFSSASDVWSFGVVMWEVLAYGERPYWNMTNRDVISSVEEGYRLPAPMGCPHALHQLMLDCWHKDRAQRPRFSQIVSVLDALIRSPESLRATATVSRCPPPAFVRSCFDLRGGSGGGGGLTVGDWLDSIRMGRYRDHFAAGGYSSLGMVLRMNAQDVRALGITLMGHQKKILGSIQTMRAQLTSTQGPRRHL

[2] = biological target: T6, TYK2(JHSdomain-pseudokinase) (Homo sapiens, UniProt P29597); conditions: for Percent control: 10 μM; for remaining binding at 10 µM: read-out: Percent control
T6 construct: TYK2(JHSdomain-pseudokinase); purchased DiscoveRx Corporation (KINOMEscan service)

BLK = biological target: T7, BLK (Homo sapiens, UniProt P51451); conditions: for Percent control: BLK, 10 μM; for remaining binding at 10 µM: read-out: Percent control
T7 construct: purchased DiscoveRx KINOMEscan

EPHB3 = biological target: T8, EPHB3 (Homo sapiens, UniProt P54753); conditions: for remaining binding at 10 µM: read-out: Percent control
T8 construct: purchased DiscoveRx KINOMEscan
T8 sequence (P54753 34-998): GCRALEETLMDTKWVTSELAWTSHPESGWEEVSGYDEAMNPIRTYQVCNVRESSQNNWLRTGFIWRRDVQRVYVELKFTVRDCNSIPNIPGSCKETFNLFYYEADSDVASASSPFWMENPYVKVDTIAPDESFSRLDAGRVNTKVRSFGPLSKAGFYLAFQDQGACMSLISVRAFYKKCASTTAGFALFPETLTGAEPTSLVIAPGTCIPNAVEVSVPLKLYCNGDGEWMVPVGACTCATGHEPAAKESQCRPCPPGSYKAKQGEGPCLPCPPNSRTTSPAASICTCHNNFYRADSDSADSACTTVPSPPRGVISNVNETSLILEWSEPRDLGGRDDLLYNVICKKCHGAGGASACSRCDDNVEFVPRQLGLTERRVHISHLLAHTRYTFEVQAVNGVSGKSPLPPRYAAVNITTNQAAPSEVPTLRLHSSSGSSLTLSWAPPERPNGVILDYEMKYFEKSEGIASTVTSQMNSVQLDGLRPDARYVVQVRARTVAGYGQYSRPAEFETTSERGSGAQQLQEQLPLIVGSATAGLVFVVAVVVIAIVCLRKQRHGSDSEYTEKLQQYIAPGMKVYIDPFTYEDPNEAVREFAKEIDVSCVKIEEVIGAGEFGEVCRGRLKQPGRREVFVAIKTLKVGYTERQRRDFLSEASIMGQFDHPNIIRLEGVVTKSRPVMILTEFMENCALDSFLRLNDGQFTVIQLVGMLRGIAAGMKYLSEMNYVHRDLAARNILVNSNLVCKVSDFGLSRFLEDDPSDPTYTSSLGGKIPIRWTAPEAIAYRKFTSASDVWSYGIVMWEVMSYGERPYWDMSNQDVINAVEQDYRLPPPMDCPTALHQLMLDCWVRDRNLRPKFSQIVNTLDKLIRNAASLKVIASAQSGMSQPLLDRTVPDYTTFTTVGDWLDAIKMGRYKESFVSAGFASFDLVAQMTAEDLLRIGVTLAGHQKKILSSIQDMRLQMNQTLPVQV

T4 sequence (P04629 33-796): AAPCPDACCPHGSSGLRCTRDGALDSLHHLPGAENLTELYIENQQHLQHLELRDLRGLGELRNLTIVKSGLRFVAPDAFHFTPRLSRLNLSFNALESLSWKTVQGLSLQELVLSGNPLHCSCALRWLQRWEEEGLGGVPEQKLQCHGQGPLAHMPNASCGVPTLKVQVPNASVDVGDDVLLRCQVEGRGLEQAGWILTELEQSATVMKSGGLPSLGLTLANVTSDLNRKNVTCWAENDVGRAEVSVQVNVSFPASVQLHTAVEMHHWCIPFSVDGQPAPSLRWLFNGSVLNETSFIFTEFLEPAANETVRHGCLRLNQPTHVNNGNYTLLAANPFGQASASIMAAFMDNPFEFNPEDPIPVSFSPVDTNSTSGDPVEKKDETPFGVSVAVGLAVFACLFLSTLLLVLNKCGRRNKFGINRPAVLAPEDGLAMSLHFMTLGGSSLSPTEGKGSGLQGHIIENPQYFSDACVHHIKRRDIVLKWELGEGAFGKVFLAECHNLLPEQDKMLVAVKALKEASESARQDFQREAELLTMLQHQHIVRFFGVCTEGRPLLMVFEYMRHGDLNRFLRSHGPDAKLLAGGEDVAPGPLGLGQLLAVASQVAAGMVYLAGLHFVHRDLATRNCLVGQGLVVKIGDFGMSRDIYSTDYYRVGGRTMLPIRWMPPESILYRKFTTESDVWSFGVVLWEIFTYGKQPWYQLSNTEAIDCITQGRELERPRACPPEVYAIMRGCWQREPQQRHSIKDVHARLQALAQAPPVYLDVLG
T1 sequence (O60674 840-1132 limits assumed): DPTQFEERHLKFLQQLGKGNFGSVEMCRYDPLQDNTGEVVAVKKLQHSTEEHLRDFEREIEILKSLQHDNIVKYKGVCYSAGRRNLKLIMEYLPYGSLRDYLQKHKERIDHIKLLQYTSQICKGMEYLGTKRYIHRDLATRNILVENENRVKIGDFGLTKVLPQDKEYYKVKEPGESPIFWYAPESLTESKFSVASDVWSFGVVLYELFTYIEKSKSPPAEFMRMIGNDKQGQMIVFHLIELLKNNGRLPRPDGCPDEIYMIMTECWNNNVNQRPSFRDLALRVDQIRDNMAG
T6 sequence (P29597 589-875 limits assumed): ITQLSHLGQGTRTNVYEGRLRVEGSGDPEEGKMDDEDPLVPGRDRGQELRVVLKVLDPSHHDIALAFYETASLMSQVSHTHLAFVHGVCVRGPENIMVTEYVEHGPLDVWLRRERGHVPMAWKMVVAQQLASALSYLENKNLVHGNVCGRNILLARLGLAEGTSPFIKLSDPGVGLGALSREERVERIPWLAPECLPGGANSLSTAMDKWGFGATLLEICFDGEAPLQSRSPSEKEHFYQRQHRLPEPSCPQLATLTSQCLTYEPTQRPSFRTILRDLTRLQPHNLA
T7 sequence (P51451 whole entry): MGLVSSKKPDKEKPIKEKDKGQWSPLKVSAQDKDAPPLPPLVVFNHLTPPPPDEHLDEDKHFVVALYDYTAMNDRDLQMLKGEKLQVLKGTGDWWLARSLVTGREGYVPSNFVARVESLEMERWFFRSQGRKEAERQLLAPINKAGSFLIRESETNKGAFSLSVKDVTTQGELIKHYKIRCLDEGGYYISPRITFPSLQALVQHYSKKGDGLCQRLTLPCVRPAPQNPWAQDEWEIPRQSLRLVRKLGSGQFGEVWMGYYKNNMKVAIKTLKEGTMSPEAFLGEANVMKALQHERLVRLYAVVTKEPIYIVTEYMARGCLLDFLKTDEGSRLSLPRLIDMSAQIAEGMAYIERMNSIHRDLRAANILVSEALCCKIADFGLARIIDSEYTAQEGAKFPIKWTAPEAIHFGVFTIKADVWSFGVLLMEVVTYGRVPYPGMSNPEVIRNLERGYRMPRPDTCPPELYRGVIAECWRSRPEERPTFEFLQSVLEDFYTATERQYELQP
T3 sequence (Q06187 whole entry): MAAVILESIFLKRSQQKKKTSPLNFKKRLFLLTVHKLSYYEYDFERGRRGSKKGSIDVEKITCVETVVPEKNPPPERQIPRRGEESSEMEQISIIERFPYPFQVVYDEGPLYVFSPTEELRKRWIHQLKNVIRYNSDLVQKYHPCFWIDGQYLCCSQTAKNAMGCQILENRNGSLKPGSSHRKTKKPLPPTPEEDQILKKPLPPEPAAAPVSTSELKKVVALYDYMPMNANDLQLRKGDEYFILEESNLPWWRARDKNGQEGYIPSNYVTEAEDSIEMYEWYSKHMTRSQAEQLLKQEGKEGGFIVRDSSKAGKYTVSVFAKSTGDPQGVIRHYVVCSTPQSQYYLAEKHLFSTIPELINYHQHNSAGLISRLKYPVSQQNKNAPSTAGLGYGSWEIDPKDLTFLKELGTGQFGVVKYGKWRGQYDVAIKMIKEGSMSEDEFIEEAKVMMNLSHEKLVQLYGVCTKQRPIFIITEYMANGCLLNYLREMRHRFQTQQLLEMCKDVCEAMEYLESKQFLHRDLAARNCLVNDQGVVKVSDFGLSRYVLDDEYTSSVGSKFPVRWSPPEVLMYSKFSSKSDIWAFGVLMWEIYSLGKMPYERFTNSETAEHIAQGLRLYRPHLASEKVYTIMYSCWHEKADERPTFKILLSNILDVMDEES

SMILES	Percent control [1] [%]	Percent control (TXK) [%]	Percent control (BTK; BTK, 10 μM) [%]	Percent control (TRKA; TRKA, 10 μM) [%]	Percent control (EPHA8; EPHA8, 10 μM) [%]	Percent control [2] [%]	Percent control (BLK) [%]	Percent control (EPHB3; EPHB3, 10 μM) [%]	remaining binding at 10 µM [1] [%]	remaining binding at 10 µM (TXK) [%]	remaining binding at 10 µM (BTK) [%]	remaining binding at 10 µM (TRKA) [%]	remaining binding at 10 µM (EPHA8) [%]	remaining binding at 10 µM [2] [%]	remaining binding at 10 µM (BLK) [%]	remaining binding at 10 µM (EPHB3) [%]	remaining binding at 10 µM (BTK; BTK, 10 μM) [%]	remaining binding at 10 µM (TRKA; TRKA, 10 μM) [%]	remaining binding at 10 µM (EPHA8; EPHA8, 10 μM) [%]	remaining binding at 10 µM (EPHB3; EPHB3, 10 μM) [%]
Cc1ccc(NC(=O)c2ccc(CN3CCN(C)CC3)cc2)cc1Nc1nccc(-c2cccnc2)[n+]1[Pt-2]1([Cl])[NH2+]C2CCCCC2[NH2+]1 (stereo not drawn) [1b, oxaliplatin-imatinib]	100	87	100	98	68	100	12	87												
C#Cc1cccc(Nc2c3cc(OCCOC)c(OCCOC)cc3nc[n+]2[Pt@SP2-2]([NH3+])([NH3+])[Cl])c1 [2a, cisplatin-erlotinib]	46	76	87	94	56	100	41	88												
COc1cc2c(Nc3ccc(Br)cc3F)[n+]([Pt-2]3([Cl])[NH2+]C4CCCCC4[NH2+]3)cnc2cc1OCC1CCN(C)CC1 (stereo not drawn) [3b, oxaliplatin-vandetanib]	100	56	37	92	6.8	100	1.4	100												
C#Cc1cccc(Nc2ncnc3cc(OCCOC)c(OCCOC)cc23)c1 [Erlotinib]									27	27.5	100	100	8.6	19.4	1.9	100				
Cc1ccc(NC(=O)c2ccc(CN3CCN(C)CC3)cc2)cc1Nc1nccc(-c2cccnc2)n1 [Imatinib, reference compound]		100		100	12.3		4.9	100	100					46.5			100			
COc1cc2c(Nc3ccc(Br)cc3F)ncnc2cc1OCC1CCN(C)CC1 [Vandetanib, reference compound]									100	27				100	0.7		14.5	100	0.9	100
